Experimental findings from patent US20240109864A1, “SUBSTITUTED PYRAZOLYL PIPERIDINE CARBOXYLIC ACIDS” (BAYER AKTIENGESELLSCHAFT, priority 2020, published 2024) are described below.

The EC50 is the concentration that produces a half-maximal response.

Counter-ions that a name gives are not always drawn.

The target of this assay is T1, recombinant guanylate cyclase reporter cell line (Rattus norvegicus, UniProt P20595).
T1 construct: expressed in transfected cells
T1 sequence (P20595 1-619): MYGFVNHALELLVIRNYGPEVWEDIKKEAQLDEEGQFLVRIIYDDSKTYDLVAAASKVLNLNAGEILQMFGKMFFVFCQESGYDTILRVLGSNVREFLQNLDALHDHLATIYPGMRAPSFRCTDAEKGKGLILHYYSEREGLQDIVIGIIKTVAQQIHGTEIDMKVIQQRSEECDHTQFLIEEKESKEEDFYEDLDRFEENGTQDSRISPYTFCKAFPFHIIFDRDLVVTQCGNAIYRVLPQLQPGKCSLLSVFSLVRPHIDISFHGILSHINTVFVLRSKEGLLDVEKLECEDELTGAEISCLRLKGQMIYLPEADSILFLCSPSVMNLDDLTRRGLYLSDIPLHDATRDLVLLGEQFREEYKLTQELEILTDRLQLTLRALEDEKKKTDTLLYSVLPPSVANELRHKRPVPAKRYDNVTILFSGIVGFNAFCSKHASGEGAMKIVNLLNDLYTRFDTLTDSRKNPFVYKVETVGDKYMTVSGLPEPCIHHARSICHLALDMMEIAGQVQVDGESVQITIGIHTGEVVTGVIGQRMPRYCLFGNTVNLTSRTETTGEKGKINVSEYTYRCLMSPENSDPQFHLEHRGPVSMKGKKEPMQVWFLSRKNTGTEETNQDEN
T1 sequence (P19686 1-690 partner): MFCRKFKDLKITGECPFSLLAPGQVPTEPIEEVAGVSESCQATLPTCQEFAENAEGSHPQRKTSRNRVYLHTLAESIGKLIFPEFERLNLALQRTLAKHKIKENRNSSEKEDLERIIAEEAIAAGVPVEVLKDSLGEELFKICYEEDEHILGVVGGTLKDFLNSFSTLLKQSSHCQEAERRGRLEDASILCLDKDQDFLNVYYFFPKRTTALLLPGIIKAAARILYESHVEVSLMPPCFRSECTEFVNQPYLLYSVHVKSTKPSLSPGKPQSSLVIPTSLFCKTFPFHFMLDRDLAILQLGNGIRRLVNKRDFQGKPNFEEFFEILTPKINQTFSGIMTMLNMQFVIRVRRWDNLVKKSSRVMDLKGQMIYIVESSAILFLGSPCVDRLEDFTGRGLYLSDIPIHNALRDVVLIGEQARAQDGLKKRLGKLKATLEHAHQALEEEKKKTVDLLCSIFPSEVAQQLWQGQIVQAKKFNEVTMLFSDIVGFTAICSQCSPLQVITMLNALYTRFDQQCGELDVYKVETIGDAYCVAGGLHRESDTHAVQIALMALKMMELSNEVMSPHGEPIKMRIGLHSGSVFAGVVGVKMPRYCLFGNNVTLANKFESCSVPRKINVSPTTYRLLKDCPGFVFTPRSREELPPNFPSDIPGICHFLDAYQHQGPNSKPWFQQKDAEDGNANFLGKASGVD
Kind of assay: Effect on a recombinant guanylate cyclase reporter cell line. The format is cell-based. As to conditions: in some cases mean values from individual determinations; for MEC: MEC = minimum effective concentration; for EC50: half maximal effective concentration. Here is the method: The cellular activity of the compounds according to the invention was determined using a recombinant guanylate cyclase reporter cell line, as described in F. Wunder et al., Anal. Biochem. 339, 104-112 (2005).

Regarding `CC(C)(F)CN1CCN(c2ccc(-c3ccc(Cl)cc3N3CCCC(n4ncc(C(=O)O)c4C(F)(F)F)C3)cc2)CC1.Cl` (single isomer, unassigned) [Example 10, 1-[1-[5-Chloro-2-[4-[4-(2-fluoro-2-methyl-propyl)piperazin-1-yl]phenyl]phenyl]-3-piperidyl]-5-(trifluoromethyl)pyrazole-4-carboxylic acid hydrochloride], the MEC is 3.0 nM and the EC50 was 24.5 nM.

Consider `CC(C)CC(=O)N1CCN(c2ccc(-c3ccc(Cl)cc3N3CCCC(n4ncc(C(=O)O)c4C(F)(F)F)C3)cc2)CC1` (single isomer, unassigned) [Example 52, 1-[1-[5-Chloro-2-[4-[4-(3-methylbutanoyl)piperazin-1-yl]phenyl]phenyl]-3-piperidyl]-5-(trifluoromethyl)pyrazole-4-carboxylic acid], for which the MEC is recorded as 10.0 nM and the half-maximal effective concentration (EC50) turned out to be 31 nM.

Take `CCN1CCN(c2ccc(-c3ccc(Cl)cc3N3CCCC(n4ncc(C(=O)O)c4C(F)(F)F)C3)c(F)c2)CC1` (single isomer, unassigned) [Example 68, 1-[1-[5-Chloro-2-[4-(4-ethylpiperazin-1-yl)-2-fluoro-phenyl]phenyl]-3-piperidyl]-5-(trifluoromethyl)pyrazole-4-carboxylic acid hydrochloride]: the MEC was determined as 3.0 nM and the EC50 was found to be 36.5 nM.

Consider `O=C(O)c1cnn(C2CCCN(c3cc(Cl)ccc3-c3ccc(N4CCN(CC5CC5)CC4)cc3F)C2)c1C(F)(F)F` (single isomer, unassigned) [Example 69, 1-[1-[5-Chloro-2-[4-[4-(cyclopropylmethyl)piperazin-1-yl]-2-fluoro-phenyl]phenyl]-3-piperidyl]-5-(trifluoromethyl)pyrazole-4-carboxylic acid hydrochloride], for which the MEC was found to be 3.0 nM and the EC50 came out at 13.8 nM.

Take `O=C(O)c1cnn(C2CCCN(c3cc(Cl)ccc3-c3ccc(N4CCN(CC5CC5F)CC4)cc3)C2)c1C(F)(F)F` (single isomer, unassigned) [Example 25, 1-[1-[5-Chloro-2-[4-[4-[[2-fluorocyclopropyl]methyl]piperazin-1-yl]phenyl]phenyl]-3-piperidyl]-5-(trifluoromethyl)pyrazole-4-carboxylic acid hydrochloride]: the EC50 was found to be 22 nM. The MEC (hydrochloride) is recorded as 10.0 nM.

Regarding `O=C(O)c1cnn(C2CCCN(c3cc(Cl)ccc3-c3ccc(C4CCN(C(=O)C5CC5)CC4)cc3)C2)c1C(F)(F)F` (single isomer, unassigned) [Example 85, 1-[1-[5-Chloro-2-[4-[1-(cyclopropanecarbonyl)-4-piperidyl]phenyl]phenyl]-3-piperidyl]-5-(trifluoromethyl)pyrazole-4-carboxylic acid hydrochloride], the EC50 came out at 1.1 nM. Also, where the note is “hydrochloride”, the MEC is recorded as <0.3 nM.

Turning to `CC(C)CN1CCc2cc(-c3ccc(Cl)cc3N3CCCC(n4ncc(C(=O)O)c4C(F)(F)F)C3)ccc2C1` (single isomer, unassigned) [Example 81, 1-[1-[5-Chloro-2-(2-isobutyl-3,4-dihydro-1H-isoquinolin-6-yl)phenyl]-3-piperidyl]-5-(trifluoromethyl)pyrazole-4-carboxylic acid hydrochloride], the MEC was 30.0 nM and the EC50 came to 43 nM.

Regarding `CC(=O)N1CCN(c2ccc(-c3ccc(Cl)cc3N3CCCC(n4ncc(C(=O)O)c4C(F)(F)F)C3)cc2)CC1` (single isomer, unassigned) [Example 36, 1-[1-[2-[4-(4-Acetylpiperazin-1-yl)phenyl]-5-chloro-phenyl]-3-piperidyl]-5-(trifluoromethyl)pyrazole-4-carboxylic acid], the MEC amounted to 10.0 nM and the EC50 turned out to be 35.5 nM.

Regarding `O=C(O)c1cnn(C2CCCN(c3cc(Cl)ccc3-c3ccc(N4CCN(CC5(C(F)(F)F)CC5)CC4)cc3)C2)c1C(F)(F)F` (single isomer, unassigned) [Example 34, 1-[1-[5-Chloro-2-[4-[4-[[1-(trifluoromethyl)cyclopropyl]methyl]piperazin-1-yl]phenyl]phenyl]-3-piperidyl]-5-(trifluoromethyl)pyrazole-4-carboxylic acid hydrochloride], the MEC is 10.0 nM and the EC50 was found to be 40.5 nM.

Consider `O=C(O)c1cnn(C2CCCN(c3cc(Cl)ccc3-c3ccc4c(c3)CCN(CC(F)(F)F)C4)C2)c1C(F)(F)F` (single isomer, unassigned) [Example 80, 1-[1-[5-Chloro-2-[2-(2,2,2-trifluoroethyl)-3,4-dihydro-1H-isoquinolin-6-yl]phenyl]-3-piperidyl]-5-(trifluoromethyl)pyrazole-4-carboxylic acid], for which the MEC is listed as 10.0 nM and the EC50 is 85.5 nM.

Take `O=C(O)c1cnn(C2CCCN(c3cc(Cl)ccc3-c3ccc(N4CCN(CC5CC5C(F)(F)F)CC4)cc3)C2)c1C(F)(F)F` (single isomer, unassigned) [Example 32, 1-[1-[5-Chloro-2-[4-[4-[[2-(trifluoromethyl)cyclopropyl]methyl]piperazin-1-yl]phenyl]phenyl]-3-piperidyl]-5-(trifluoromethyl)pyrazole-4-carboxylic acid hydrochloride]: the EC50 stood at 9.3 nM. Also, the MEC (hydrochloride) was 3.0 nM.

With `O=C(O)c1cnn(C2CCCN(c3cc(Cl)ccc3-c3ccc(N4CCN(CCOC(F)(F)F)CC4)cc3)C2)c1C(F)(F)F` (single isomer, unassigned) [Example 35, 1-[1-[5-Chloro-2-[4-[4-[2-(trifluoromethoxy)ethyl]piperazin-1-yl]phenyl]phenyl]-3-piperidyl]-5-(trifluoromethyl)pyrazole-4-carboxylic acid hydrochloride], the MEC turned out to be 3.0 nM and the EC50 was found to be 17.5 nM.

For the compound `O=C(O)c1cnn(C2CCCN(c3cc(Cl)ccc3-c3ccc(N4CCN(CC5CC(F)(F)C5)CC4)cc3)C2)c1C(F)(F)F` (single isomer, unassigned) [Example 20, 1-[1-[5-Chloro-2-[4-[4-[(3,3-difluorocyclobutyl)methyl]piperazin-1-yl]phenyl]phenyl]-3-piperidyl]-5-(trifluoromethyl)pyrazole-4-carboxylic acid hydrochloride], the EC50 is 3.6 nM. The MEC (hydrochloride) came out at 1.0 nM.

As for `O=C(O)c1cnn(C2CCCN(c3cc(Cl)ccc3-c3ccc(N4CCN(C(=O)[C@H]5C[C@H]5F)CC4)cc3)C2)c1C(F)(F)F` (single isomer, unassigned) [Example 45, hydrochloride], the MEC is 3.0 nM and the EC50 was found to be 14 nM.

As to `O=C(O)c1cnn(C2CCCN(c3cc(Cl)ccc3-c3ccc(N4CCN(CC5CC5F)CC4)cc3)C2)c1C(F)(F)F` (single isomer, unassigned) [Example 26, 1-[1-[5-Chloro-2-[4-[4-[[2-trans-fluorocyclopropyl]methyl]piperazin-1-yl]phenyl]phenyl]-3-piperidyl]-5-(trifluoromethyl)pyrazole-4-carboxylic acid hydrochloride], the EC50 is 5.2 nM. The MEC (hydrochloride) was found to be 1.0 nM.

`O=C(O)c1cnn(C2CCCN(c3cc(Cl)ccc3-c3ccc(N4CCN(C(=O)OCCOC(F)(F)F)CC4)cc3)C2)c1C(F)(F)F` (single isomer, unassigned) [Example 64, 1-[1-[5-Chloro-2-[4-[4-[2-(trifluoromethoxy)ethoxycarbonyl]piperazin-1-yl]phenyl]phenyl]-3-piperidyl]-5-(trifluoromethyl)pyrazole-4-carboxylic acid]: the MEC turned out to be 30.0 nM and the EC50 was 84 nM.

In the case of `CS(=O)(=O)N1CCN(c2ccc(-c3ccc(Cl)cc3N3CCCC(n4ncc(C(=O)O)c4C(F)(F)F)C3)cc2)CC1` (single isomer, unassigned) [Example 67, 1-[1-[5-Chloro-2-[4-(4-methylsulfonylpiperazin-1-yl)phenyl]phenyl]-3-piperidyl]-5-(trifluoromethyl)pyrazole-4-carboxylic acid hydrochloride], the MEC is 30.0 nM and the EC50 was 45 nM.
